Tested on: P. falciparum 3D7 growth, pLDH absorbance
Test: P. falciparum 3D7 growth inhibition, dose response, strain 3D7 (AID 2305)

SMILES | IC50
CCC[C@@H](C(=O)NCCc1cccc(OC)c1)N1C(=O)c2c(ccc(OC)c2OC)C1C(=O)Nc1c(C)cccc1C (some centres not stated) | 0.81 µM
COc1ccc(CN(C)CCCc2ccc(NC(=O)c3cccc4c(=O)c5ccccc5[nH]c34)cc2)cc1OC | 1.37 µM
Cc1cc(OCCCN2CCC(NS(=O)(=O)c3cc(Br)c(Cl)s3)CC2)c2ccccc2n1 | 0.85 µM
Cc1ccccc1OCC(=O)Nc1ccc(-c2nc3cc4ccccc4cc3[nH]2)cc1 | 0.75 µM
CCN(CC)C(C)(C)CN(Cc1ccc(-c2ccc(C(F)(F)F)cc2)cc1)C(=O)Cn1c(CCc2cccc(F)c2F)nc(=O)c2ccccc21 | 0.96 µM
O=C(Nc1ccc(CN2CCN(S(=O)(=O)c3cccc(Cl)c3)CC2)cc1)c1cccs1 | 1.08 µM
NS(=O)(=O)c1ccc(CNc2ccc3ncc(-c4ccc(OC(F)(F)F)cc4)n3n2)cc1 | 0.58 µM
Cc1cccc2[nH]c(-c3ccc(-c4ccc(CN5CCC(C(N)=O)CC5)cc4)s3)nc12 | 0.91 µM
COc1ccc2[nH]c3ccccc3c(=O)c2c1 | 1 µM
Cc1ccc(C(C)C)c(Oc2cnc(NC(CO)c3ccccc3)nc2N)c1 (configuration not stated) | 0.96 µM
Cc1nc(-c2cccc(NCc3ccccc3)c2)[nH]c1C | 0.86 µM
CCCCCCCCN1CCN(CCCCCCNc2c3ccccc3nc3ccccc23)CC1 | 0.16 µM
O=C(NCCCCN1CCC(c2nc3ccccc3s2)CC1)c1cc2ccccc2[nH]1 | 1.02 µM
O=C(N[C@@H](Cc1ccccc1)[C@H](O)CNC1CCCCC1)c1cc(C2CCCC2)cc(N2CCCC2=O)c1 | 0.17 µM
CC(CN1CCN(C)CC1)C(=O)Nc1cccc(-c2ccc(-c3nc4ccc(C(F)(F)F)cc4[nH]3)cc2)c1 (configuration not stated) | 0.61 µM
COc1ccc2ncc(OC)c(CCN3CC[C@@H](NCc4ccc5c(n4)NC(=O)CS5)[C@H](O)C3)c2n1 | 0.83 µM
CC1(CCCCN2CCC(Oc3ccc(F)cc3F)CC2)C(=O)Nc2ccccc21 (configuration not stated) | 0.76 µM
N=C(N)c1ccc(NC(=O)Cc2nc3ccc(C(=N)N)cc3[nH]2)cc1 | 1.37 µM
O=C(Nc1cccc(-c2cccc(-c3nc4ccc(F)cc4[nH]3)c2)c1)Nc1ccc2c(c1)OCO2 | 0.14 µM
COc1cc(C=NNc2nc(Nc3ccccc3)nc(Nc3ccccc3)n2)ccc1OCc1ccccc1[N+](=O)[O-] | 0.81 µM
O=C(NC1CCC(CN2CCC(c3c[nH]c4ccccc34)CC2)CC1)c1cc(-c2cccc(Cl)c2)n(-c2ccc(Cl)cc2Cl)n1 (configuration not stated) | 1.08 µM
Cc1noc(C)c1-c1cccc(CNCc2ccc(-c3ccc(-c4nc5ccc(C(F)(F)F)cc5[nH]4)cc3)cc2)c1 | 0.17 µM
O=C(/C=C/c1ccc(Cl)c(Cl)c1)NCCCCCN1CCCC(C(=O)Nc2ccc(Cl)cc2)C1 (configuration not stated) | 0.85 µM
O=C1c2cc(I)ccc2SC1c1ccccc1 (configuration not stated) | 0.82 µM
O=S(=O)(Nc1cccc(CCN2CCCCC2CCN2CCCC2)c1)c1ccc(Oc2ccccc2)cc1 (configuration not stated) | 1.05 µM

SMILES | IC50
Fc1cccc(CNc2ncc(-c3ccsc3)c(-c3nccs3)n2)c1 | 0.24 µM
C/C=C1/CN2CC[C@H]1C[C@H]2[C@H](O)c1ccnc2ccc(O)cc12 | 0.49 µM
COc1cc2nc(Nc3ccc4c(c3)OCCO4)nc(N)c2cc1OC | 0.47 µM
COc1cccc(C(=O)C2CC2CN2CC=C(c3c[nH]c4ccc(OC)nc34)CC2)c1 (configuration not stated) | 0.53 µM
O=C(NCCc1ccccc1)N(Cc1cccc(-c2ccc(CNCCc3ccccc3)cc2)c1)C1CCN(Cc2ccccc2)CC1 | 0.61 µM
O=C1NC(C(=O)Nc2ccccc2)C(c2ccccc2)S1 (configuration not stated) | 0.17 µM
COc1cccc(NC(=O)Nc2ccc(Nc3nc(C)cc(N(C)C)n3)cc2)c1 | 0.17 µM
CCN(CC)CCCC(C)Nc1c(-c2ccc(C)cc2)cnc2ccccc12 (configuration not stated) | 0.2 µM
CCN(CC)CCn1c(=N)n(CC(O)c2ccc(Cl)c(Cl)c2)c2ccccc21 (configuration not stated) | 0.79 µM
O=C(NC1CCCCN(Cc2ccc3c(c2)OCCO3)C1)c1cc(-c2ccccc2F)cs1 (configuration not stated) | 1.05 µM
CN(C)CCCNC(=O)c1ccccc1Sc1ccccc1C#N | 1.14 µM
CCNS(=O)(=O)c1ccc(Oc2ccc([N+](=O)[O-])cc2)cc1 | 0.17 µM
Cc1nn(-c2ccc(Cl)cc2)c2[nH]c(CN3CCN(c4cccc(Cl)c4)CC3)cc(=O)c12 | 0.24 µM
O=S(=O)(c1ccccc1)n1ccc2cc(Nc3ncnc4cc(C#C[C@H]5CCCN5)sc34)ccc21 | 1.07 µM
COc1ccccc1C(C)NCC(=O)Nc1cccc(C(=O)Nc2cccc(C(F)(F)F)c2)c1 (configuration not stated) | 1.53 µM
Cc1cc(C)nc(-n2[nH]c(C)c(Cc3ccc(C(C)(C)C)cc3)c2=O)n1 | 1.01 µM
CC(=O)Nc1ccc(CN2CCC(CNC(=O)c3cc(-c4cccc(Cl)c4)cs3)C2)cc1 (configuration not stated) | 1.12 µM
O=C(NCCCN1CCC(Cc2ccccc2)CC1)c1cc2c(Cl)nc3ccccc3c2s1 | 0.74 µM
CC(C)C[C@H](NC(=O)c1ccc(OCCN2CCOCC2)cc1)C(=O)NC(/C=N/N1CCCC1=O)C(C)C (some centres not stated) | 0.25 µM
Cc1cc(NCCC(=O)Nc2ccccc2)nc(NCCc2ccccc2)n1 | 0.85 µM
Cc1c(CN2CCCCC2)cccc1OCCCNc1nc(NCCc2ccc(O)cc2)nc(N2CCNCC2)n1 | 0.22 µM
Cc1cc(N[C@@H](CC(C)C)C(=O)NCc2cccc(F)c2)nc(NCCc2ccccc2)n1 | 1.08 µM
CNCCNCc1cccc(-c2ccc(-c3nc4c(C)cccc4[nH]3)s2)c1 | 0.95 µM
O=S(=O)(Nc1cccc(CCN2CCCCC2CCN2CCCC2)c1)c1cccc2ccccc12 (configuration not stated) | 0.82 µM
COc1cc(NC(=O)N2CCc3ccc(OCCN4CCCCC4)cc32)cc(C(F)(F)F)c1 | 0.27 µM

SMILES | IC50
O=c1[nH]c2c(cc1CNC1CCCCC1)c(-c1ccc(F)cc1)nn2-c1ccccc1 | 0.8 µM
CC(C)C[C@H](NC(=O)c1cc(-c2ccc(F)cc2)no1)C(=O)O (tested in a mixture with another compound) | 0.98 µM
COc1ccc(Nc2nccc(N3CCC(NC(=O)c4cccc(C#N)c4)C3)n2)cc1 (configuration not stated) | 0.82 µM
CC[C@H]1C[N+]2([O-])CC[C@@H]1C[C@H]2[C@H](O)c1cc(-c2ccccc2)nc2ccc(OC)cc12 | 0.84 µM
Clc1ccc(CNCCCCCCCNCc2ccc(Cl)c(Cl)c2)cc1Cl | 0.37 µM
COc1ccccc1N1CCN(Cc2c(NC(C)=O)sc(C)c2C)CC1 | 0.43 µM
Oc1cccc(C2CCCN(CCc3c[nH]c4ccccc34)C2)c1 (configuration not stated) | 0.86 µM
CCC(=O)Oc1ccc(NC(=O)c2cccc(OC)c2)cc1 | 0.77 µM
O=C(Nc1ccccc1)N(Cc1ccc(-c2cccc(CNC3CCCC3)c2)cc1)C1CCN(Cc2ccccc2)CC1 | 0.43 µM
CCCCCCCN1CC[C@@H](C[C@H](N)Cc2ccnc3ccc(OC)cc23)[C@@H](CC)C1 | 1.07 µM
CS(=O)(=O)CCNCc1cccc(-c2ccc3c(Nc4ccc(Oc5cccnc5)cc4)ccnc3c2)c1 | 0.14 µM
O=C(Nc1ccc(Cl)c(Cl)c1)N1CCc2ccc(OCCCN3CCCCC3)cc2CC1 | 1.52 µM
COc1ccc2nccc([C@@H](O)CN3CCC(NCc4nc5ccc(F)cc5[nH]4)CC3)c2c1 | 0.73 µM
O=C(NC1CC1)c1cnc(N2CCCC(c3ccccc3)C2)c(Cl)c1 (configuration not stated) | 0.8 µM
CC(C)(C)[C@@H](Nc1ccc(C#N)c2ccccc12)C(=O)NC1(Cc2ccc(O)cc2)CCCC1 | 1.44 µM
O=C(NCC1CCN(Cc2cccc(F)c2)C1)c1cc(-c2cccc(C(F)(F)F)c2)cs1 (configuration not stated) | 0.99 µM
N#Cc1ccc(CN2CCC(Oc3ccc(NC(=O)c4cccs4)cc3Cl)C2)cc1 (configuration not stated) | 0.4 µM
COCCn1c(-c2cccc(Cl)c2)nn(-c2ccc([N+](=O)[O-])cc2Cl)c1=S | 0.74 µM
COc1ccc(Cn2c(Nc3cccc(C(F)(F)F)c3)nc3cc(C(=O)NCCN4CCCC4)ccc32)cc1Cl | 0.83 µM
Cc1cc(OCCCN2CCC(NS(=O)(=O)c3ccc(Cl)c(Cl)c3)CC2)c2ccccc2n1 | 0.9 µM
Oc1ccc2[nH]c(-c3cccc(F)c3)nc2c1CNCc1ccccc1 | 0.92 µM
CC(C)c1ccc(NC(=O)c2ccc(C(=O)NC3CCN(Cc4ccccc4)CC3)cc2)cc1 | 0.98 µM
CC[C@H]1CN2CCc3cc(OC)c(OC)cc3[C@@H]2C[C@@H]1C[C@H]1NCCc2c1cc(OC)c(OC)c2Br | 0.65 µM
CCNCc1cccc(-c2ccc3ccnc(N)c3c2)c1 | 0.05 µM
COc1ccc2nccc([C@@H](O)CN3CCC(NC(=O)/C=C/c4ccc5[nH]c(=O)ccc5c4)CC3)c2c1 | 0.97 µM

SMILES | IC50
Cc1[nH]c(C)c(-c2ccc(-c3ccc(OC(F)(F)F)cc3)cc2)c(=O)c1Cl | 0.04 µM
COc1cccc(NC(=O)Nc2ccc(-c3oc(C(=O)NCC(c4ccccc4)N(C)C)cc3-c3ccncc3)cc2)c1 (configuration not stated) | 1.83 µM
CCOc1cc2ncnc(Nc3ccc(OCc4ccccc4F)c(Cl)c3)c2cc1OCC | 0.6 µM
COc1ccc(NC(=O)NC2CCN(CCCOc3cc(C)nc4ccccc34)CC2)cc1OC | 1.28 µM
O=C(NCC(CCN1CCC(c2c[nH]c3ccccc23)CC1)c1ccccc1)Nc1ccc(Cl)c(Cl)c1 (configuration not stated) | 0.83 µM
Cc1ccc(NC(=O)NCCCCCN2CCC(c3c[nH]c4ccccc34)CC2)cc1I | 0.81 µM
CCOc1ccc2c(NN=Cc3cccc(OC)c3)cc(C)nc2c1 | 0.12 µM
Cc1cccc2[nH]c(-c3ccc(-c4ccc(NC(=O)CN5CCN(C)CC5)cc4)s3)nc12 | 1.02 µM
O=C(NCCN1CCC(c2ccncc2)CC1)c1cccc(Nc2nccc(Nc3ccc(Oc4ccccc4)cc3)n2)c1 | 0.17 µM
CS(=O)(=O)CCNCc1cccc(-c2ccc3c(Nc4ccc(Oc5ccccc5)cc4)ccnc3c2)c1 | 0.69 µM
O=[N+]([O-])c1cccc(CNCC2CCN(Cc3ccc(C(F)(F)F)cc3)CC2)c1 | 0.25 µM
O=C(NCCCCN1CCN(c2cccc(Cl)c2Cl)CC1)c1ccc2c(c1)CCN(C1CCC1)CC2 | 0.75 µM
O=C(/C=C/c1cccc2ccccc12)NCCCCCN1CCC(c2c[nH]c3ccccc23)CC1 | 1.14 µM
Cn1cncc1C(=O)Nc1cccc(-c2cccc(-c3nc4ccc(F)cc4[nH]3)c2)c1 | 0.49 µM
Cc1[nH]c(C)c(-c2ccc(Oc3ccc(Cl)cc3)cc2)c(=O)c1I | 0.96 µM
Cc1nc2ccc(NC(=O)c3cc(S(=O)(=O)N(C)C)ccc3Cl)cc2s1 | 0.82 µM
COCCSc1ccc(CC(C)NCC(O)c2cccc(Cl)c2)cc1 (configuration not stated) | 0.76 µM
Cc1ccc(Cc2cnc(NCCSCc3ccc(CN(C)C)s3)[nH]c2=O)cn1 | 0.86 µM
CCCCCCn1c(Sc2ccc(C#N)c([N+](=O)[O-])c2)nnc1-c1ccc(Cl)cc1 | 0.83 µM
COc1ccc(-c2cccc(CNC3CCN(C)CC3)c2)cc1S(=O)(=O)NCc1ccccc1 | 0.87 µM
FC(F)(F)c1ccc2nc(-c3cccc(-c4cccc(CNCCc5ccncc5)c4)c3)[nH]c2c1 | 0.14 µM
CCc1ccc(Cc2cnc3nc(N)nc(N)c3c2C)cc1 | 0.2 µM

Source: PubChem BioAssay AID2305 (GlaxoSmithKline (GSK), 2010)
